According to patent US20090047246A1, “NOVEL INHIBITORS OF HEPATITIS C VIRUS REPLICATION” (InterMune, Inc., priority 2007, published 2009):
Read-outs that look alike come from different tables or passages of the source.

What was measured:
HCV NS3 helicase = biological target: T1, HCV NS3 helicase (Hepatitis C virus genotype 1b, UniProt P26663); assay: HCV Helicase Prompt FRET Assay (Example A); assay type: biochemical
T1 construct: full-length NS3 (1-631), purified at Array BioPharma
Method in brief: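 Full-length NS3 (1-631), 5 or 6 nM, preincubated 5 min with compound, then unwinds 50 nM FAM/BHQ-1 duplex substrate with 250 nM capture strand and 300 μM ATP in 25 mM MOPS pH 7.0, 1.5 mM MgCl2, 0.005% Triton X-100, 2% DMSO. Fluorescence (485/535 nm) followed ~30 min at room temperature; IC50 from initial rates by 4- or 5-parameter fit.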

HCV NS3/4a protease = HCV NS3/4a protease activity, effect of additives on reaction rate (Assay Example 1); assay type: biochemical, HCV genotype 1b-K2040; settings: base buffer 50 mM Tris-HCl pH 7.5, 15% glycerol; for Conclusion (effect of additive on NS3/4a protease reaction rate): 0.5 μM FRET substrate, additive at the concentrations tested
Method: In order to identify reaction conditions that give high levels of HCV NS3/4a protease activity, several additives were analyzed to determine their effect on reaction rate. The base buffer used was 50 mM Tris-HCl, pH 7.5 containing 15% glycerol. The FRET-based assay substrate used (sequence: Ac-DE-Dap(QXL520)-EE-Abu-ψ-[COO]-AS-Cys(5-FAMsp)-NH2) was obtained from Anaspec, Inc. (San Jose, Calif.). The NS4a surrogate peptide used (KGSVVIVGRIILSGRK) was obtained from Midwest Biotech (Fishers, Ind.). The NS3 enzyme used was the benchmark wild-type full length enzyme derived from HCV genotype 1b-K2040. The reaction rate for the NS3 catalyzed hydrolysis of 0.5 μM substrate in base buffer was used as a reference.

NS3 Helicase = NS3 Helicase (Hepatitis C virus genotype 1b, UniProt P26663); assay: Activity of NS3 Helicase in Presence of Detergent with or without LDAO (Table A); assay type: biochemical
Chain of NS3 Helicase (P26663 1027-1657): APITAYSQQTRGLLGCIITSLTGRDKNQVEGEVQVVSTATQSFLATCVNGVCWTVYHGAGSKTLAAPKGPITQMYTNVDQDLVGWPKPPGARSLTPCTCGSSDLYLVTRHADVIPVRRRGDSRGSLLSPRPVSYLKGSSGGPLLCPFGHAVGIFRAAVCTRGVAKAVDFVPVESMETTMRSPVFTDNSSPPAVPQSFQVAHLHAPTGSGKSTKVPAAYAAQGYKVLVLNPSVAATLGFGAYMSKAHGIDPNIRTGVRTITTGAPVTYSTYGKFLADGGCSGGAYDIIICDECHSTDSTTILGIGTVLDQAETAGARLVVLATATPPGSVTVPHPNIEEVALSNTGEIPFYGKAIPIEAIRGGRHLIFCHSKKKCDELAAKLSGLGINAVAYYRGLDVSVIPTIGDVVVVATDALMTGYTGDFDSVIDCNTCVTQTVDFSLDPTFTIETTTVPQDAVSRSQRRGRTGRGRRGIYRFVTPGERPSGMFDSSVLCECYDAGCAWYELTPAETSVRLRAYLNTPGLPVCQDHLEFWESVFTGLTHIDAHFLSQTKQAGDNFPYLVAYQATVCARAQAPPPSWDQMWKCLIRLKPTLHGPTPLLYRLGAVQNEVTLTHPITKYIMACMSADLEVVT
Method: In another embodiment, at least one detergent is added to a solution containing NS3 to improve the helicase activity. In some embodiments, the detergent is selected from the group consisting of LDAO, Tween 20, Triton X100, Pluronic F127, CHAPS, β-octyl glucoside, laurylmaltoside, N-lauroylsarcosine, and hexadecyltrimethylammonium bromide. In a preferred embodiment, LDAO is added. In a more preferred embodiment, at least one additional detergent in added to the solution containing NS3 and LDAO. In some embodiments, the additional detergent(s) is/are selected from the group consisting of Tween 20, Triton X100, Pluronic F127, CHAPS, β-octyl glucoside, laurylmaltoside, N-lauroylsarcosine, and hexadecyltrimethylammonium bromide. Table A represents the helicase activity of NS3 in the presence of LDAO and at least one additional detergent; and, in the absence of LDAO and the presence of at least one other detergent.

[1] = Table 36, compounds made using Scheme 54, read-out: IC50 Activity
[2] = Table 35, compounds made using Scheme 53, read-out: IC50 Activity
[3] = plus LDAO 0.6 mM, detergent 0.05 mM
[4] = plus LDAO 0.6 mM, detergent 0.05 mM, control = 100
[5] = plus LDAO 0.6 mM, detergent 0.2 mM
[6] = plus LDAO 0.6 mM, detergent 0.2 mM, control = 100
[7] = plus LDAO 0.6 mM, detergent 0.020%
[8] = plus LDAO 0.6 mM, detergent 0.020%, control = 100
[9] = plus LDAO 0.6 mM, detergent 0.075%
[10] = plus LDAO 0.6 mM, detergent 0.075%, control = 100

T1 sequence (P26663 1027-1657): as above

Q: Which IC50 (HCV NS3 helicase; [1]) does the source give for `O=C(O)Cc1cn(Cc2csc3c(Cl)c(Cl)ccc23)c2cc(Br)ccc12` [Example 780] here?
A: The IC50 was over 50 µM.

Q: How did the IC50 (HCV NS3 helicase; [1]) turn out when `O=C(O)Cc1cn(Cc2csc3c(Cl)cccc23)c2cc(Br)ccc12` [Example 782] was run?
A: Its IC50 is over 50 µM.

Q: With `O=C(O)Cc1cn(Cc2csc3cccc(Cl)c23)c2cc(Br)ccc12` [Example 783] as the compound, how does the IC50 (HCV NS3 helicase; [1]) read?
A: The IC50 was 10 to 50 µM.

Q: How did the IC50 (HCV NS3 helicase; [1]) turn out when `O=C(O)Cc1cn(Cc2csc3cccc(Cl)c23)c2cc(Br)ccc12` [Example 784] was run?
A: The IC50 was over 50 µM.

Q: Which IC50 (HCV NS3 helicase; [1]) does the source give for `O=C(O)Cc1cn(Cc2csc3cc(Cl)ccc23)c2cc(Br)ccc12` [Example 785] here?
A: Its IC50 is over 50 µM.

Q: How did the IC50 (HCV NS3 helicase; [1]) turn out when `O=C(O)Cc1cn(Cc2csc3cc(Cl)cc(Cl)c23)c2cc(Br)ccc12` [Example 786] was run?
A: The IC50 was over 50 µM.

Q: How did the IC50 (HCV NS3 helicase; [1]) turn out when `Nc1cc(N)cc(-c2ccc3c(CC(=O)O)cn(Cc4csc5cc(Cl)cc(Cl)c45)c3c2)c1` [Example 787] was run?
A: Its IC50 is 10 to 50 µM.

Q: With `Cc1sc2cc(Cl)c(F)cc2c1Cn1cc(CC(=O)O)c2ccc(-c3cc(N)cc(N)c3)cc21` [Example 788] as the compound, how does the IC50 (HCV NS3 helicase; [1]) read?
A: Its IC50 is under 10 µM.

Q: Which IC50 (HCV NS3 helicase; [1]) does the source give for `N#Cc1ccc2c(CC(=O)O)cn(Cc3csc4ccc(Cl)cc34)c2c1` [Example 789] here?
A: The IC50 was 10 to 50 µM.

Q: How did the IC50 (HCV NS3 helicase; [1]) turn out when `Cc1sc2ccc(Cl)cc2c1Cn1cc(CC(=O)O)c2ccccc21` [Example 790] was run?
A: The IC50 was over 50 µM.

Q: For `CCOC(=O)Cc1cn(Cc2cccc3nc(C)ccc23)c2cc(-c3cc(N)cc(N)c3)ccc12` [Example 791], which IC50 (HCV NS3 helicase; [2]) is on record?
A: The IC50 was 10 to 50 µM.

Q: How did the IC50 (HCV NS3 helicase; [2]) turn out when `CCOC(=O)Cc1cn(Cc2csc3ccc(F)cc23)c2cc(-c3cc([N+](=O)[O-])cc([N+](=O)[O-])c3)ccc12` [Example 792] was run?
A: The IC50 was over 50 µM.

Q: `CCOC(=O)Cc1cn(Cc2cccc3sc(Cl)nc23)c2cc(-c3cc([N+](=O)[O-])cc([N+](=O)[O-])c3)ccc12` [Example 793] was tested. Which IC50 (HCV NS3 helicase; [2]) did it give?
A: The IC50 was 10 to 50 µM.

Q: How did the IC50 (HCV NS3 helicase; [2]) turn out when `CCOC(=O)Cc1cn(Cc2cccc3sc(Cl)nc23)c2cc(-c3cc(N)cc(N)c3)ccc12` [Example 794] was run?
A: The IC50 was 10 to 50 µM.

Q: With `CCOC(=O)Cc1cn(C(=O)c2csc3ccc(Cl)cc23)c2cc(-c3cc([N+](=O)[O-])cc([N+](=O)[O-])c3)ccc12` [Example 795] as the compound, how does the IC50 (HCV NS3 helicase; IC50 Activity, Table 38, compounds made using Scheme 56, Scheme 57 and Scheme 61) read?
A: Its IC50 is over 50 µM.

Q: Which results are given for `CCCCCCCCCCCC[N+](C)(C)[O-]` [LDAO, lauryl (dimethyl)-amine oxide]?
A: Conclusion (effect of additive on NS3/4a protease reaction rate) (HCV NS3/4a protease): LDAO at 0.6 mM raised activity; Increase of NS3/4a protease activity (HCV NS3/4a protease; LDAO at 0.6 mM): significantly (~10-fold)

Q: Which Slope (NS3 Helicase; [3]) does the source give for `CCCCCCCCCCCC(=O)N(C)CC(=O)O` [N-lauroylsarcosine] here?
A: The Slope was −0.53 mP/min.

Q: And the Activity (NS3 Helicase; [4])?
A: Its Activity is 87%.

Q: What about the Slope (NS3 Helicase; [5]) of the same compound?
A: The Slope was −0.28 mP/min.

Q: What about the Activity (NS3 Helicase; [6]) of the same compound?
A: Its Activity is 46%.

Q: Which “Conclusion (effect of additive on NS3/4a protease reaction rate)” value (“Conclusion” below) (HCV NS3/4a protease) does the source give for `[Cl-].[Na+]` [NaCl] here?
A: Its value is “NaCl detrimental to activity”.

Q: For `O=C(O)CCP(CCC(=O)O)CCC(=O)O` [TCEP], which “Conclusion” value (HCV NS3/4a protease) is on record?
A: The value was “detrimental to activity”.

Q: What does the source list for `CCCCCCCCCCCCCCCC[N+](C)(C)C.[Br-]` [hexadecyltrimethylammonium bromide]?
A: Slope (NS3 Helicase; [3]): 0.24 mP/min; Activity (NS3 Helicase; [4]): −39%; Slope (NS3 Helicase; [5]): 0.74 mP/min; Activity (NS3 Helicase; [6]): −121%

Q: With `CCCCCCCCCCCCO[C@@H]1O[C@H](CO)[C@@H](O[C@H]2O[C@H](CO)[C@@H](O)[C@H](O)[C@H]2O)[C@H](O)[C@H]1O` [laurylmaltoside] as the compound, how does the Slope (NS3 Helicase; [3]) read?
A: The Slope was −0.8 mP/min.

Q: What about the Activity (NS3 Helicase; [4]) of the same compound?
A: The Activity was 131%.

Q: What about the Slope (NS3 Helicase; [5]) of the same compound?
A: The Slope was −1.23 mP/min.

Q: And the Activity (NS3 Helicase; [6])?
A: The Activity was 202%.

Q: For `CCCCCCCCO[C@@H]1O[C@H](CO)[C@@H](O)[C@H](O)[C@H]1O` [β-octyl glucoside], which Slope (NS3 Helicase; [7]) is on record?
A: Its Slope is −0.45 mP/min.

Q: What about the Activity (NS3 Helicase; [8]) of the same compound?
A: The Activity was 74%.

Q: What about the Slope (NS3 Helicase; [9]) of the same compound?
A: The Slope was −0.38 mP/min.

Q: What about the Activity (NS3 Helicase; [10]) of the same compound?
A: Its Activity is 62%.

Q: Which “Conclusion” value (HCV NS3/4a protease) does the source give for “KGSVVIVGRIILSGRK [NS4a peptide, "The NS4a surrogate peptide used (…) was obtained from Midwest Biotech", reference compound]” here?
A: The value was “Best activity at 25 and 2500 μM”.

Q: For Pluronic F127, which Activity (NS3 Helicase; no LDAO, detergent 0.020%) is on record?
A: Its Activity is 126%.

Q: And the Slope (NS3 Helicase; no LDAO, detergent 0.020%)?
A: Its Slope is −0.48 mP/min.

Q: And the Activity (NS3 Helicase; no LDAO, detergent 0.075%)?
A: The Activity was 155%.

Q: And the Slope (NS3 Helicase; no LDAO, detergent 0.075%)?
A: Its Slope is −0.59 mP/min.

Q: What about the Slope (NS3 Helicase; [7]) of the same compound?
A: Its Slope is −1.14 mP/min.

Q: What about the Activity (NS3 Helicase; [8]) of the same compound?
A: The Activity was 300%.

Q: What about the Slope (NS3 Helicase; [9]) of the same compound?
A: The Slope was −1.29 mP/min.

Q: And the Activity (NS3 Helicase; [10])?
A: The Activity was 339%.

Q: For Triton X100, which Activity (NS3 Helicase; no LDAO, detergent 0.020%) is on record?
A: Its Activity is 66%.

Q: And the Slope (NS3 Helicase; no LDAO, detergent 0.020%)?
A: Its Slope is −0.25 mP/min.

Q: And the Activity (NS3 Helicase; no LDAO, detergent 0.075%)?
A: The Activity was 53%.

Q: What about the Slope (NS3 Helicase; no LDAO, detergent 0.075%) of the same compound?
A: Its Slope is −0.2 mP/min.

Q: And the Slope (NS3 Helicase; [7])?
A: Its Slope is −1.51 mP/min.

Q: And the Activity (NS3 Helicase; [8])?
A: The Activity was 397%.

Q: And the Slope (NS3 Helicase; [9])?
A: The Slope was −1.19 mP/min.

Q: What about the Activity (NS3 Helicase; [10]) of the same compound?
A: Its Activity is 313%.

Q: Triton X-100 was tested. Which “Conclusion” value (HCV NS3/4a protease) did it give?
A: Its value is “Improvement in activity at 12 μM”.
